{"source": "patent US20250304623A1", "about": "“PEPTIDES FOR INTRACELLULAR DELIVERY” (UNIVERSIDADE DE SANTIAGO DE COMPOSTELA, priority 2022, published 2025)", "format_in_all_cases": "cell-based", "key": {"A549 cells": {"tested_on": "A549 cells", "assay": "RLuc pDNA delivery, robotic library screening, A549", "method_in_brief": "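A549 cells in DMEM+10% FBS were washed twice with PBS and exposed for 4 h to amphiphile/RLuc pDNA complexes prepared from DMSO stocks diluted in DMEM. After medium replacement and 72 hours, cells in HBSS were incubated at 37° C. for 30 minutes, basal then total luminescence measured after 5 μM coelenterazine h; background from untransfected cells was subtracted.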"}, "HCT116 cells": {"tested_on": "HCT116 cells", "assay": "RLuc pDNA delivery, robotic library screening, HCT116"}, "Hela cells": {"tested_on": "Hela cells", "assay": "RLuc pDNA delivery, robotic library screening, HeLa"}, "Hek293 cells": {"tested_on": "Hek293 cells", "assay": "RLuc pDNA delivery, robotic library screening, Hek293"}, "[1]": {"tested_on": "Hek293 cells expressing EGFP", "assay": "EGFP-targeting siRNA delivery (GFP silencing vs siMOCK), Hek293"}}, "note": "*: point of attachment. NHNH2 = NN*"}
{"substance": "Ac-RK*LRRLLRK*-NH2 (Ac-RK(NHNH2)LRRLLRK(NHNH2)-NH2; not fully specified; printed as Ac-RK*LRRLLRK*-NH2; also: K*2,K*9: native or modified lysine (ε-amide to a linker)) [Peptide 9.2]", "values": [{"measurement": "mean luminescent intensity (RLuc pDNA)", "setting": "A549 cells; Dodecanal, 10 μM", "value": 1215, "unit": "RLU"}, {"measurement": "mean luminescent intensity (RLuc pDNA)", "setting": "A549 cells; Myristoleyl, 5 μM", "value": 10365, "unit": "RLU"}, {"measurement": "mean luminescent intensity (RLuc pDNA)", "setting": "A549 cells; Myristoleyl, 10 μM", "value": 3358, "unit": "RLU"}, {"measurement": "mean luminescent intensity (RLuc pDNA)", "setting": "A549 cells; Myristoleyl, 15 μM", "value": 1684, "unit": "RLU"}, {"measurement": "mean luminescent intensity (RLuc pDNA)", "setting": "HCT116 cells; Dodecanal, 10 μM", "value": 819, "unit": "RLU"}, {"measurement": "mean luminescent intensity (RLuc pDNA)", "setting": "HCT116 cells; Dodecanal, 15 μM", "value": 1099, "unit": "RLU"}, {"measurement": "mean luminescent intensity (RLuc pDNA)", "setting": "HCT116 cells; Myristoleyl, 5 μM", "value": "−544", "unit": "RLU"}, {"measurement": "mean luminescent intensity (RLuc pDNA)", "setting": "HCT116 cells; Myristoleyl, 10 μM", "value": "−623", "unit": "RLU"}, {"measurement": "mean luminescent intensity (RLuc pDNA)", "setting": "HCT116 cells; Myristoleyl, 15 μM", "value": "−617", "unit": "RLU"}, {"measurement": "mean luminescent intensity (RLuc pDNA)", "setting": "Hela cells; Hela, Dodecanal, 10 μM", "value": 13156, "unit": "RLU"}, {"measurement": "mean luminescent intensity (RLuc pDNA)", "setting": "Hela cells; Hela, Dodecanal, 15 μM", "value": 11603, "unit": "RLU"}, {"measurement": "mean luminescent intensity (RLuc pDNA)", "setting": "Hela cells; Hela, Myristoleyl, 5 μM", "value": "−600", "unit": "RLU"}, {"measurement": "mean luminescent intensity (RLuc pDNA)", "setting": "Hela cells; Hela, Myristoleyl, 10 μM", "value": "−701", "unit": "RLU"}, {"measurement": "mean luminescent intensity (RLuc pDNA)", "setting": "Hela cells; Hela, Myristoleyl, 15 μM", "value": "−707", "unit": "RLU"}, {"measurement": "mean luminescent intensity (RLuc pDNA)", "setting": "Hek293 cells; Dodecanal, 10 μM", "value": 32272, "unit": "RLU"}, {"measurement": "mean luminescent intensity (RLuc pDNA)", "setting": "Hek293 cells; Dodecanal, 15 μM", "value": 18149, "unit": "RLU"}, {"measurement": "mean luminescent intensity (RLuc pDNA)", "setting": "Hek293 cells; Oleyl, 15 μM", "value": 435, "unit": "RLU"}, {"measurement": "percentage of GFP-silencing relative to siMOCK", "setting": "[1]; Dodecanal, 5 μM", "value": 14, "unit": "%"}, {"measurement": "percentage of GFP-silencing relative to siMOCK", "setting": "[1]; Dodecanal, 15 μM", "value": 3, "unit": "%"}, {"measurement": "percentage of GFP-silencing relative to siMOCK", "setting": "[1]; Myristoleyl, 10 μM", "value": 10, "unit": "%"}, {"measurement": "percentage of GFP-silencing relative to siMOCK", "setting": "[1]; Myristoleyl, 15 μM", "value": "−1", "unit": "%"}]}
{"substance": "Ac-RRHK*RLK*RRLK*RL-NH2 (Ac-RRHK(NHNH2)RLK(NHNH2)RRLK(NHNH2)RL-NH2; not fully specified; printed as Ac-RRHK*RLK*RRLK*RL-NH2; also: K*4,K*7,K*11: native or modified lysine (ε-amide to a linker)) [13(Leu-His)]", "values": [{"measurement": "mean luminescent intensity (RLuc pDNA)", "setting": "A549 cells; Oleyl, 5 μM", "value": 17058, "unit": "RLU"}, {"measurement": "mean luminescent intensity (RLuc pDNA)", "setting": "A549 cells; Petroselinyl, 15 μM", "value": 2865, "unit": "RLU"}, {"measurement": "mean luminescent intensity (RLuc pDNA)", "setting": "HCT116 cells; Myristoleyl, 5 μM", "value": 76409, "unit": "RLU"}, {"measurement": "mean luminescent intensity (RLuc pDNA)", "setting": "HCT116 cells; Myristoleyl, 15 μM", "value": 429, "unit": "RLU"}, {"measurement": "mean luminescent intensity (RLuc pDNA)", "setting": "HCT116 cells; Palmitoleyl, 5 μM", "value": 123206, "unit": "RLU"}, {"measurement": "mean luminescent intensity (RLuc pDNA)", "setting": "HCT116 cells; Petroselinyl, 5 μM", "value": 116309, "unit": "RLU"}, {"measurement": "mean luminescent intensity (RLuc pDNA)", "setting": "HCT116 cells; Petroselinyl, 10 μM", "value": 33439, "unit": "RLU"}, {"measurement": "mean luminescent intensity (RLuc pDNA)", "setting": "HCT116 cells; Petroselinyl, 15 μM", "value": 4972, "unit": "RLU"}, {"measurement": "mean luminescent intensity (RLuc pDNA)", "setting": "Hela cells; HeLa, Petroselinyl, 10 μM", "value": 2037, "unit": "RLU"}, {"measurement": "mean luminescent intensity (RLuc pDNA)", "setting": "Hela cells; Hela, Myristoleyl, 5 μM", "value": 7216, "unit": "RLU"}, {"measurement": "mean luminescent intensity (RLuc pDNA)", "setting": "Hela cells; Hela, Myristoleyl, 10 μM", "value": 985, "unit": "RLU"}, {"measurement": "mean luminescent intensity (RLuc pDNA)", "setting": "Hela cells; Hela, Myristoleyl, 15 μM", "value": "−373", "unit": "RLU"}, {"measurement": "mean luminescent intensity (RLuc pDNA)", "setting": "Hela cells; Hela, Palmitoleyl, 5 μM", "value": 7854, "unit": "RLU"}, {"measurement": "mean luminescent intensity (RLuc pDNA)", "setting": "Hela cells; Hela, Palmitoleyl, 10 μM", "value": 3026, "unit": "RLU"}, {"measurement": "mean luminescent intensity (RLuc pDNA)", "setting": "Hela cells; Hela, Petroselinyl, 5 μM", "value": 5527, "unit": "RLU"}, {"measurement": "mean luminescent intensity (RLuc pDNA)", "setting": "Hek293 cells; Dodecanal, 15 μM", "value": 62749, "unit": "RLU"}, {"measurement": "mean luminescent intensity (RLuc pDNA)", "setting": "Hek293 cells; Palmitoleyl, 5 μM", "value": 240629, "unit": "RLU"}, {"measurement": "mean luminescent intensity (RLuc pDNA)", "setting": "Hek293 cells; Palmitoleyl, 10 μM", "value": 77558, "unit": "RLU"}, {"measurement": "mean luminescent intensity (RLuc pDNA)", "setting": "Hek293 cells; Palmitoleyl, 15 μM", "value": 7639, "unit": "RLU"}, {"measurement": "mean luminescent intensity (RLuc pDNA)", "setting": "Hek293 cells; Petroselinyl, 5 μM", "value": 213228, "unit": "RLU"}, {"measurement": "mean luminescent intensity (RLuc pDNA)", "setting": "Hek293 cells; Petroselinyl, 10 μM", "value": 77709, "unit": "RLU"}, {"measurement": "mean luminescent intensity (RLuc pDNA)", "setting": "Hek293 cells; Petroselinyl, 15 μM", "value": 6882, "unit": "RLU"}, {"measurement": "percentage of GFP-silencing relative to siMOCK", "setting": "[1]; Dodecanal, 5 μM", "value": 43, "unit": "%"}, {"measurement": "percentage of GFP-silencing relative to siMOCK", "setting": "[1]; Dodecanal, 10 μM", "value": 18, "unit": "%"}, {"measurement": "percentage of GFP-silencing relative to siMOCK", "setting": "[1]; Dodecanal, 15 μM", "value": 57, "unit": "%"}, {"measurement": "percentage of GFP-silencing relative to siMOCK", "setting": "[1]; Myristoleyl, 5 μM", "value": 41, "unit": "%"}, {"measurement": "percentage of GFP-silencing relative to siMOCK", "setting": "[1]; Myristoleyl, 10 μM", "value": 37, "unit": "%"}, {"measurement": "percentage of GFP-silencing relative to siMOCK", "setting": "[1]; Myristoleyl, 15 μM", "value": 9, "unit": "%"}, {"measurement": "percentage of GFP-silencing relative to siMOCK", "setting": "[1]; Oleyl, 10 μM", "value": 62, "unit": "%"}, {"measurement": "percentage of GFP-silencing relative to siMOCK", "setting": "[1]; Oleyl, 15 μM", "value": 21, "unit": "%"}, {"measurement": "percentage of GFP-silencing relative to siMOCK", "setting": "[1]; Palmitoleyl, 5 μM", "value": 26, "unit": "%"}, {"measurement": "percentage of GFP-silencing relative to siMOCK", "setting": "[1]; Petroselinyl, 5 μM", "value": 43, "unit": "%"}, {"measurement": "percentage of GFP-silencing relative to siMOCK", "setting": "[1]; Petroselinyl, 10 μM", "value": 43, "unit": "%"}, {"measurement": "percentage of GFP-silencing relative to siMOCK", "setting": "[1]; Petroselinyl, 15 μM", "value": 33, "unit": "%"}]}
